From ChEMBL document CHEMBL4359842 (J Med Chem, 2019)
Calls of active or inactive are those of the source. No cut-off for these calls is given here.

Key:
[1] = biological target: Mitogen-activated protein kinase 8 (Homo sapiens, UniProt P45983); assay: Inhibition of human JNK1alpha1 using ATF2 as substrate measured after 40 mins in presence of [gamma33P]ATP by scintillation counting analysis
[2] = Drug level in APPswe/PS1dE9 double mutant-transgenic mouse brain at 30 mg/kg, ip administered as single dose measured after 2 hrs by LC-MS/MS analysis; assay type: ADME, organism-based; details: read-out: Drug uptake
[3] = Clearance in APPswe/PS1dE9 double mutant-transgenic mouse at 3 mg/kg, iv administered as single dose by LC-MS/MS analysis; assay type: ADME, organism-based; details: in vivo
Mus musculus [4] = assay: In vivo inhibition of JNK in APPswe/PS1dE9 double mutant-transgenic mouse model assessed as reduction in APP phosphorylation at Thr668 residue in hippocampus at 30 mg/kg, ip administered once daily for 12 weeks measured post-last dose by Western blot analysis; assay type: functional, organism-based
[5] = Cmax in APPswe/PS1dE9 double mutant-transgenic mouse at 30 mg/kg, ip administered as single dose by LC-MS/MS analysis; assay type: ADME, organism-based; set-up: dose 30 mg/kg, route intraperitoneal; details: in vivo
Mus musculus [6] = assay: In vivo inhibition of JNK in APPswe/PS1dE9 double mutant-transgenic mouse model assessed as reduction in APP phosphorylation at Thr668 residue in cortex at 30 mg/kg, ip administered once daily for 12 weeks measured post-last dose by Western blot analysis; assay type: functional, organism-based
[7] = Tmax in APPswe/PS1dE9 double mutant-transgenic mouse at 30 mg/kg, ip administered as single dose by LC-MS/MS analysis; assay type: ADME, organism-based; details: in vivo
SH-SY5Y [8] = assay: Neuroprotective activity against amyloid beta (25 to 35 residues)-induced cell death in human SH-SY5Y cells assessed as increase in cell viability at 1 to 10 uM preincubated for 1 hr followed by amyloid beta (25 to 35 residues) addition and measured after 72 hrs by MTT assay; assay type: functional, cell-based
[9] = Primary phase half life in APPswe/PS1dE9 double mutant-transgenic mouse at 3 mg/kg, iv administered as single dose by LC-MS/MS analysis; assay type: ADME, organism-based; details: in vivo, read-out: alphat1/2 (converted)
[10] = biological target: Mitogen-activated protein kinase 9 (Homo sapiens, UniProt P45984); assay: Inhibition of human JNK2alpha2 using ATF2 as substrate measured after 40 mins in presence of [gamma33P]ATP by scintillation counting analysis
[11] = Bioavailability in APPswe/PS1dE9 double mutant-transgenic mouse at 30 mg/kg, ip administered as single dose by LC-MS/MS analysis; assay type: ADME, organism-based; details: in vivo
SH-SY5Y [12] = assay: Effect on cell proliferation in human SH-SY5Y cells at 1 to 10 uM measured after 1 hr by MTT assay; assay type: ADME, cell-based
Mus musculus [13] = assay: Improvement in spatial memory impairment in APPswe/PS1dE9 double mutant-transgenic mouse model assessed as decrease in exploration distance at 15 to 30 mg/kg, ip administered once daily for 12 weeks measured 24 hrs after training trial by morris water maze test; assay type: functional, organism-based
[14] = AUC in APPswe/PS1dE9 double mutant-transgenic mouse at 30 mg/kg, ip administered as single dose by LC-MS/MS analysis; assay type: ADME, organism-based; details: in vivo
Mus musculus [15] = assay: Improvement in spatial memory impairment in APPswe/PS1dE9 double mutant-transgenic mouse model assessed as increase in retention latency time at 15 to 30 mg/kg, ip administered once daily for 12 weeks measured post-last dose by step-through passive avoidance test; assay type: functional, organism-based
Mus musculus [16] = assay: (§1) Improvement in spatial memory impairment in ip dosed APPswe/PS1dE9 double mutant-transgenic mouse model assessed as decrease in area occupied by diffused plaque in hippocampus administered once daily for 12 weeks measured post-last dose by thioflavin S staining-based fluorescence microscopic analysis; assay type: functional, organism-based
[17] = Terminal half life in APPswe/PS1dE9 double mutant-transgenic mouse at 30 mg/kg, ip administered as single dose by LC-MS/MS analysis; assay type: ADME, organism-based; details: in vivo, read-out: beta t1/2 (converted)
[18] = Ratio of drug level in APPswe/PS1dE9 double mutant-transgenic mouse brain to plasma at 30 mg/kg, ip administered as single dose measured after 0.5 hrs by LC-MS/MS analysis; assay type: ADME, organism-based; details: read-out: BPR
Mus musculus [19] = assay: Improvement in spatial memory impairment in ip dosed APPswe/PS1dE9 double mutant-transgenic mouse model assessed as decrease in area occupied by diffused plaque in cortex administered once daily for 12 weeks measured post-last dose by thioflavin S staining-based fluorescence microscopic analysis; assay type: functional, organism-based
Mus musculus [20] = assay: In vivo inhibition of JNK in APPswe/PS1dE9 double mutant-transgenic mouse model assessed as reduction in Tau phosphorylation at Thr205 residue in hippocampus at 30 mg/kg, ip administered once daily for 12 weeks measured post-last dose by Western blot analysis; assay type: functional, organism-based
[21] = Drug level in APPswe/PS1dE9 double mutant-transgenic mouse brain at 30 mg/kg, ip administered as single dose measured after 8 hrs by LC-MS/MS analysis; assay type: ADME, organism-based; details: read-out: Drug uptake
[22] = Cmax in APPswe/PS1dE9 double mutant-transgenic mouse at 3 mg/kg, iv administered as single dose by LC-MS/MS analysis; assay type: ADME, organism-based; set-up: dose 3 mg/kg, route intravenous; details: in vivo
Mus musculus [23] = assay: In vivo inhibition of JNK in APPswe/PS1dE9 double mutant-transgenic mouse model assessed as reduction in Tau phosphorylation at Ser235 residue in cortex at 30 mg/kg, ip administered once daily for 12 weeks measured post-last dose by Western blot analysis; assay type: functional, organism-based
Mus musculus [24] = assay: In vivo inhibition of […] phosphorylation in cortex of APPswe/PS1dE9 double mutant-transgenic mouse model at 30 mg/kg, ip administered once daily for 12 weeks measured post-last dose by Western blot analysis; assay type: functional, organism-based
Mus musculus [25] = assay: as §1, with “fibrillar” for “diffused”; assay type: functional, organism-based
[26] = Terminal half life in APPswe/PS1dE9 double mutant-transgenic mouse at 3 mg/kg, iv administered as single dose by LC-MS/MS analysis; assay type: ADME, organism-based; details: in vivo, read-out: beta t1/2 (converted)
[27] = Plasma concentration in APPswe/PS1dE9 double mutant-transgenic mouse at 30 mg/kg, ip administered as single dose measured after 24 hrs by LC-MS/MS analysis; assay type: ADME, organism-based
[28] = Mean residence time in APPswe/PS1dE9 double mutant-transgenic mouse at 30 mg/kg, ip administered as single dose by LC-MS/MS analysis; assay type: ADME, organism-based; details: in vivo
[29] = Mean residence time in APPswe/PS1dE9 double mutant-transgenic mouse at 3 mg/kg, iv administered as single dose by LC-MS/MS analysis; assay type: ADME, organism-based; details: in vivo
Mus musculus [30] = assay: In vivo inhibition of JNK in APPswe/PS1dE9 double mutant-transgenic mouse model assessed as reduction in Tau phosphorylation at Thr205 residue in cortex at 30 mg/kg, ip administered once daily for 12 weeks measured post-last dose by Western blot analysis; assay type: functional, organism-based
[31] = Ratio of drug level in APPswe/PS1dE9 double mutant-transgenic mouse brain to plasma at 30 mg/kg, ip administered as single dose measured after 2 hrs by LC-MS/MS analysis; assay type: ADME, organism-based; details: read-out: BPR
[32] = Toxicity in APPswe/PS1dE9 double mutant-transgenic mouse model assessed as effect on time to reach target quadrant at 15 to 30 mg/kg, ip administered once daily for 12 weeks measured 48 hrs after training trial by morris water maze test; assay type: organism-based; details: in vivo

Mitogen-activated protein kinase 8, sequence (P45983 whole entry): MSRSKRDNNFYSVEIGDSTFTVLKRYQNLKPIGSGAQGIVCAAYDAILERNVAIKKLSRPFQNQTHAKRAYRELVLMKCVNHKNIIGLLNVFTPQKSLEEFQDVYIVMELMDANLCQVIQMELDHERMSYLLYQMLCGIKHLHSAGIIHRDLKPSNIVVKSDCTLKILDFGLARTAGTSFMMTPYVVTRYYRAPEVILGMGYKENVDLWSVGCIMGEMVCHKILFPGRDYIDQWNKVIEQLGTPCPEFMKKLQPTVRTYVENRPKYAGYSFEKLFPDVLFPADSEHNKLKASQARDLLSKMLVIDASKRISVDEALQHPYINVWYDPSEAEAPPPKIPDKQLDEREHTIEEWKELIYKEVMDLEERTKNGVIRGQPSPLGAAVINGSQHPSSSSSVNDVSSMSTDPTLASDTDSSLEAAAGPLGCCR
Mitogen-activated protein kinase 9, sequence (P45984 whole entry): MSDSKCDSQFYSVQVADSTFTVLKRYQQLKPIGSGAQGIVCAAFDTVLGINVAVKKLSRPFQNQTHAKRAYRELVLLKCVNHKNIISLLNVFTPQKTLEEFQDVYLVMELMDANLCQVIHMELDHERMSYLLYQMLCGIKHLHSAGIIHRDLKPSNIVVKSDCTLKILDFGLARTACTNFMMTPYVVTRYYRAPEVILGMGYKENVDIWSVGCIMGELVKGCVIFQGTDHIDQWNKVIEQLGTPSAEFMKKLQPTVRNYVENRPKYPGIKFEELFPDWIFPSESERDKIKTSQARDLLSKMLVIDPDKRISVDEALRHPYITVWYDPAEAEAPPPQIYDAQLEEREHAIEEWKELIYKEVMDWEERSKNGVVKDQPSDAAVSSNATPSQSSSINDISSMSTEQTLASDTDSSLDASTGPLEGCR

IC50 [1]: > 100 µM | concentration at 2 h [2]: 158 ng/g | clearance [3]: 24.2 mL/min/kg | Cmax [5]: 19200 ng/mL | Tmax [7]: 0.4 h | half-life [9]: 0.35 h | IC50 [10]: > 100 µM | bioavailability [11]: 90.5% | AUC [14]: 19200 ng·h/mL | half-life [17]: 16.1 h | Kp at 0.5 h [18]: 0.0024 | concentration at 8 h [21]: 30.7 ng/g | Cmax [22]: 4550 ng/mL | half-life [26]: 8.83 h | concentration at 24 h [27]: 41 ng/mL | MRT [28]: 2.78 h | MRT [29]: 1.61 h | Kp at 2 h [31]: 0.135
SMILES: O=C1N/C(=N/c2ccccc2Cl)S/C1=C1\C(=O)Nc2ccc(F)cc21
inhibition (Mus musculus [4]): Active | inhibition (Mus musculus [6]): Active | Activity (SH-SY5Y [8]): Active | Activity (SH-SY5Y [12]): Non-Toxic | Activity (Mus musculus [13]): Active | Activity (Mus musculus [15]): Active | Activity (Mus musculus [16]): Dose-dependent effect | Activity (Mus musculus [19]): Dose-dependent effect | inhibition (Mus musculus [20]): Active | inhibition (Mus musculus [23]): Active | inhibition (Mus musculus [24]): Active | Activity (Mus musculus [25]): Dose-dependent effect | inhibition (Mus musculus [30]): Active | Activity [32]: Non-Toxic
